In paper PMC6211297 (Biochemistry, 2017):

Target: PglF (Campylobacter jejuni, UniProt Q0P9D4)
Assay: X-ray crystal structure, […] Å
Assay type: binding
Details: ternary complex with NAD(H); 10 mM UDP, pH 6.0; active site

Chain of PglF (Q0P9D4 244-590): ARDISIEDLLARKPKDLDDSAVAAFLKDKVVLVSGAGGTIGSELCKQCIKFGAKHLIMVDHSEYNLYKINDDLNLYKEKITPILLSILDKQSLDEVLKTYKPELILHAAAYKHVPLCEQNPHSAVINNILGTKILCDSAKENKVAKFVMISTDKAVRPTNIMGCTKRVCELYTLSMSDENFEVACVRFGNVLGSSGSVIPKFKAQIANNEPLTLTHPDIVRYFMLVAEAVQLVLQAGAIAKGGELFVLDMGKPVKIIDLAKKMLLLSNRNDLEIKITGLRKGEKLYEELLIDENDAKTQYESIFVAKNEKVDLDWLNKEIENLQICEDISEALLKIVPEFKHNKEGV

Structure (SMILES): O=c1ccn([C@@H]2O[C@H](COP(=O)(O)OP(=O)(O)O)[C@@H](O)[C@H]2O)c(=O)[nH]1 [UDP]
- X-ray crystal structure, 2.0 Å: The first structure determined in this investigation was that of the PglF/NAD(H)/UDP ternary complex
